Test results from ChEMBL document CHEMBL3407479, “Structure-activity relationship for the oxadiazole class of antibiotics” (J Med Chem, 2015).
Values after ≈ are worked out from the molar mass of the structure shown.

Tested on: Staphylococcus aureus
Test: Antibacterial activity against methicillin-sensitive Staphylococcus aureus ATCC 29213 after 16 to 20 hrs by broth microdilution method
Format: functional

Structure (SMILES) | MIC [µg/mL]
O=[N+]([O-])c1c[nH]nc1-c1nc(-c2ccc(Oc3ccc(F)cc3)cc2)no1 | 1 (≈ 2.72 µM)
O=[N+]([O-])c1ccc(-c2nc(-c3ccc(Oc4ccccc4)cc3)no2)cc1 | ≥ 32
O=[N+]([O-])c1cc(-c2nc(-c3ccc(Oc4ccc(F)cc4)cc3)no2)ccc1O | ≥ 128
Cl.c1ccc(Oc2ccc(-c3noc(C4CCCN4)n3)cc2)cc1 (stereo not drawn) | 64
Nc1ccc(-c2nc(-c3ccc(Oc4ccc(C(F)(F)F)cc4)cc3)no2)cc1 | 1 (≈ 2.52 µM)
Cl.NC(Cc1ccccc1)c1nc(-c2ccc(Oc3ccccc3)cc2)no1 (stereo not drawn) | ≥ 128
CC(C)CNc1c[nH]nc1-c1nc(-c2ccc(Oc3ccc(C(F)(F)F)cc3)cc2)no1 | ≥ 128
O=[N+]([O-])c1c[nH]nc1-c1nc(-c2ccc(Oc3ccccc3)cc2)no1 | 2 (≈ 5.73 µM)
O=[N+]([O-])c1ccc(-c2nc(-c3ccc(Oc4ccc(C(F)(F)F)cc4)cc3)no2)cc1 | ≥ 128
FC(F)(F)c1ccc(Oc2ccc(-c3noc(-c4n[nH]c5ccccc45)n3)cc2)cc1 | ≥ 128
Nc1cc(-c2nc(-c3ccc(Oc4ccc(F)cc4)cc3)no2)ccc1O | ≥ 128
Oc1ccc(Cc2nc(-c3ccc(Oc4ccccc4)cc3)no2)cc1 | 8 (≈ 23.2 µM)
Oc1ccc(-c2nc(-c3ccc(Oc4ccc(F)cc4)cc3)no2)cc1 | 1 (≈ 2.87 µM)
FC(F)(F)c1ccc(Oc2ccc(-c3noc(-c4n[nH]cc4NC4CCCCC4)n3)cc2)cc1 | ≥ 128
Oc1ccc(-c2nc(-c3ccc(Oc4ccccc4)cc3)no2)cc1 | 1 (≈ 3.03 µM)
C=CCOc1cc(N)ccc1-c1nc(-c2ccc(Oc3ccccc3)cc2)no1 | 8 (≈ 20.8 µM)
Nc1c[nH]nc1-c1nc(-c2ccc(Oc3ccc(F)cc3)cc2)no1 | 16 (≈ 47.4 µM)
[O-][n+]1ccc(-c2nc(-c3ccc(Oc4ccccc4)cc3)no2)cc1 | ≥ 128
Nc1ccc(-c2nc(-c3ccc(Oc4ccc(C(F)(F)F)cc4)cc3)no2)cc1F | 2 (≈ 4.82 µM)
Cl.c1ccc(Oc2ccc(-c3noc(C4CCNCC4)n3)cc2)cc1 | 32
O=[N+]([O-])c1c[nH]c(-c2nc(-c3ccc(Oc4ccc(C(F)(F)F)cc4)cc3)no2)c1 | 8 (≈ 19.2 µM)

Structure (SMILES) | MIC [µg/mL]
Fc1ccc(Oc2ccc(-c3noc(-c4ccc(Br)cc4)n3)cc2)cc1 | ≥ 128
COc1cc(-c2nc(-c3ccc(Oc4ccccc4)cc3)no2)ccc1N | ≥ 128
O=[N+]([O-])c1cc(-c2nc(-c3ccc(Oc4ccc(C(F)(F)F)cc4)cc3)no2)cnc1O | 8 (≈ 18 µM)
O=C(Nc1c[nH]nc1-c1nc(-c2ccc(Oc3ccc(C(F)(F)F)cc3)cc2)no1)c1ccccc1 | ≥ 128
Fc1ccc(Oc2ccc(-c3noc(-c4n[nH]cc4I)n3)cc2)cc1 | 4 (≈ 8.92 µM)
Nc1ccc(-c2nc(-c3ccc(Oc4ccccc4)cc3)no2)cc1 | 4 (≈ 12.1 µM)
Nc1cncc(-c2nc(-c3ccc(Oc4ccc(C(F)(F)F)cc4)cc3)no2)c1 | ≥ 128
O=C(Nc1c[nH]nc1-c1nc(-c2ccc(Oc3ccc(C(F)(F)F)cc3)cc2)no1)c1ccccn1 | ≥ 128
FC(F)(F)c1ccc(Oc2ccc(-c3noc(-c4nc[nH]n4)n3)cc2)cc1 | ≥ 128
Oc1cccc(-c2nc(-c3ccc(Oc4ccccc4)cc3)no2)c1 | ≥ 128
O=[N+]([O-])c1cc(-c2nc(-c3ccc(Oc4ccc(F)cc4)cc3)no2)cnc1O | 8 (≈ 20.3 µM)
FC(F)(F)c1ccc(Oc2ccc(-c3noc(-c4cc[nH]n4)n3)cc2)cc1 | ≥ 128
O=C(O)c1ccc(-c2nc(-c3ccc(Oc4ccc(F)cc4)cc3)no2)cc1 | ≥ 128
Fc1ccc(Oc2ccc(-c3noc(-c4ccc5[nH]ccc5c4)n3)cc2)cc1 | 1 (≈ 2.69 µM)
Fc1ccc(Oc2ccc(-c3noc(-c4c[nH]c5ncccc45)n3)cc2)cc1 | ≥ 128
OCC#Cc1c[nH]nc1-c1nc(-c2ccc(Oc3ccc(C(F)(F)F)cc3)cc2)no1 | 4 (≈ 9.38 µM)
Cl.Nc1ccc(-c2nc(-c3ccc(Oc4ccc(C(F)(F)F)cc4)cc3)no2)cc1 | 1
CCCCNc1c[nH]nc1-c1nc(-c2ccc(Oc3ccc(C(F)(F)F)cc3)cc2)no1 | ≥ 128
O=C1CC(c2nc(-c3ccc(Oc4ccc(C(F)(F)F)cc4)cc3)no2)NC(=O)N1 (stereo not drawn) | ≥ 128
O=C1C[C@H](c2nc(-c3ccc(Oc4ccc(C(F)(F)F)cc4)cc3)no2)CN1 | ≥ 128
COc1ccc(-c2nc(-c3ccc(Oc4ccc(C(F)(F)F)cc4)cc3)no2)cc1[N+](=O)[O-] | ≥ 128

Structure (SMILES) | MIC [µg/mL]
Nc1cc(-c2nc(-c3ccc(Oc4ccc(C(F)(F)F)cc4)cc3)no2)cnc1O | ≥ 128
O=C1C[C@@H](c2nc(-c3ccc(Oc4ccc(C(F)(F)F)cc4)cc3)no2)CN1 | ≥ 128
c1ccc(Oc2ccc(-c3noc(-c4ccncc4)n3)cc2)cc1 | ≥ 128
Fc1ccc(-c2nc(-c3ccc(Oc4ccccc4)cc3)no2)cc1 | ≥ 128
Nc1c(F)cc(-c2nc(-c3ccc(Oc4ccccc4)cc3)no2)cc1F | 8 (≈ 21.9 µM)
C[Si](C)(C)C#Cc1c[nH]nc1-c1nc(-c2ccc(Oc3ccc(C(F)(F)F)cc3)cc2)no1 | ≥ 128
CCOP(=O)(OCC)c1c[nH]nc1-c1nc(-c2ccc(Oc3ccc(C(F)(F)F)cc3)cc2)no1 | ≥ 128
CS(=O)(=O)Nc1ccc(-c2nc(-c3ccc(Oc4ccc(C(F)(F)F)cc4)cc3)no2)cc1 | ≥ 128
Oc1ccc(-c2nc(-c3ccc(Oc4ccc(C(F)(F)F)cc4)cc3)no2)cc1F | 2 (≈ 4.8 µM)
CC(=O)N1CCC(c2nc(-c3ccc(Oc4ccc(F)cc4)cc3)no2)CC1 | ≥ 128
COC(=O)c1ccc(-c2nc(-c3ccc(Oc4ccc(F)cc4)cc3)no2)cc1 | ≥ 128
Nc1cncc(-c2nc(-c3ccc(Oc4ccc(F)cc4)cc3)no2)c1 | ≥ 128
Nc1ccc(-c2nc(-c3ccc(Oc4ccc(F)cc4)cc3)no2)cc1 | ≥ 128
O=[N+]([O-])c1c[nH]nc1-c1nc(-c2ccc(Oc3ccc(C(F)(F)F)cc3)cc2)no1 | 2 (≈ 4.79 µM)
COc1ccc(-c2nc(-c3ccc(Oc4ccc(C(F)(F)F)cc4)cc3)no2)cc1OC | ≥ 128
FC(F)(F)c1ccc(Oc2ccc(-c3noc(-c4ccc(Br)cc4)n3)cc2)cc1 | ≥ 128
Ic1c[nH]nc1-c1nc(-c2ccc(Oc3ccccc3)cc2)no1 | 1 (≈ 2.32 µM)
Nc1c[nH]nc1-c1nc(-c2ccc(Oc3ccc(C(F)(F)F)cc3)cc2)no1 | 4 (≈ 10.3 µM)
Oc1ccc(-c2nc(-c3ccc(Oc4ccccc4)cc3)no2)cc1F | 4 (≈ 11.5 µM)

Other lines, results leading:

MIC [µg/mL] | Structure (SMILES)
2 (≈ 5.03 µM) | N#Cc1c[nH]nc1-c1nc(-c2ccc(Oc3ccc(C(F)(F)F)cc3)cc2)no1
≥ 128 | Fc1ccc(Oc2ccc(-c3noc(-c4cc[nH]n4)n3)cc2)cc1
≥ 128 | Fc1ccc(Oc2ccc(-c3noc(-c4c[nH]cn4)n3)cc2)cc1
≥ 128 | NS(=O)(=O)c1ccc(-c2nc(-c3ccc(Oc4ccc(F)cc4)cc3)no2)cc1
2 (≈ 5.46 µM) | Oc1ccc(-c2nc(-c3ccc(Oc4ccc(F)cc4)cc3)no2)cc1F
≥ 128 | Fc1ccc(-c2nc(-c3ccc(Oc4ccc(C(F)(F)F)cc4)cc3)no2)cc1
≥ 128 | Nc1c[nH]c(-c2nc(-c3ccc(Oc4ccc(F)cc4)cc3)no2)c1
1 (≈ 2.95 µM) | Clc1c[nH]nc1-c1nc(-c2ccc(Oc3ccccc3)cc2)no1
≥ 128 | FC(F)(F)c1ccc(Oc2ccc(-c3noc(-c4c[nH]c5ncccc45)n3)cc2)cc1
≥ 128 | Nc1ccc(-c2nc(-c3ccc(Oc4ccccc4)cc3)no2)c(O)c1
1 (≈ 2.61 µM) | Brc1c[nH]nc1-c1nc(-c2ccc(Oc3ccccc3)cc2)no1
8 (≈ 20.8 µM) | Oc1c(F)cc(-c2nc(-c3ccc(Oc4ccc(F)cc4)cc3)no2)cc1F
≥ 128 | Fc1ccc(Oc2ccc(-c3noc(-c4cc[nH]c4)n3)cc2)cc1
≥ 128 | COc1ccc(-c2nc(-c3ccc(Oc4ccccc4)cc3)no2)cc1[N+](=O)[O-]
≥ 128 | Oc1cc(-c2nc(-c3ccc(Oc4ccccc4)cc3)no2)ccc1I
2 (≈ 4.83 µM) | Oc1ccc(-c2nc(-c3ccc(Oc4ccc(C(F)(F)F)cc4)cc3)no2)cc1O
≥ 128 | Nc1ccc(-c2nc(-c3ccc(Oc4ccccc4)cc3)no2)cc1F
≥ 128 | Cc1ccc(S(=O)(=O)N2CCC(c3nc(-c4ccc(Oc5ccccc5)cc4)no3)CC2)cc1
16 (≈ 50.1 µM) | Nc1c[nH]nc1-c1nc(-c2ccc(Oc3ccccc3)cc2)no1
≥ 128 | c1ccc(Oc2ccc(-c3noc(-c4ccc5[nH]ncc5c4)n3)cc2)cc1
≥ 128 | NC(=O)c1ccc(-c2nc(-c3ccc(Oc4ccc(F)cc4)cc3)no2)cc1

MIC [µg/mL] | Structure (SMILES)
≥ 128 | O=[N+]([O-])c1c[nH]c(-c2nc(-c3ccc(Oc4ccc(F)cc4)cc3)no2)c1
≥ 128 | COc1ccc(-c2nc(-c3ccc(Oc4ccc(F)cc4)cc3)no2)cc1OC
≥ 128 | Cc1ccc(S(=O)(=O)N2CCC(c3nc(-c4ccc(Oc5ccc(F)cc5)cc4)no3)CC2)cc1
2 (≈ 5.66 µM) | c1ccc(Oc2ccc(-c3noc(-c4ccc5[nH]ccc5c4)n3)cc2)cc1
≥ 128 | NS(=O)(=O)c1ccc(-c2nc(-c3ccc(Oc4ccc(C(F)(F)F)cc4)cc3)no2)cc1
≥ 128 | Fc1ccc(Oc2ccc(-c3noc(-c4n[nH]c5ccccc45)n3)cc2)cc1
≥ 128 | Oc1ccc(-c2nc(-c3ccc(Oc4ccc(F)cc4)cc3)no2)cn1
≥ 128 | Cc1nc(-c2ccc(Oc3ccccc3)cc2)no1
≥ 128 | CC(C)(C)OC(=O)N1CCC(Nc2c[nH]nc2-c2nc(-c3ccc(Oc4ccc(C(F)(F)F)cc4)cc3)no2)CC1
≥ 128 | FC(F)(F)c1ccc(Oc2ccc(-c3noc(-c4n[nH]cc4NC4CCCC4)n3)cc2)cc1
≥ 128 | O=P(O)(O)c1ccc(-c2nc(-c3ccc(Oc4ccc(F)cc4)cc3)no2)cc1
≥ 128 | Nc1cc(-c2nc(-c3ccc(Oc4ccc(F)cc4)cc3)no2)cnc1O
≥ 128 | CC(C)c1cc(-c2nc(-c3ccc(Oc4ccc(F)cc4)cc3)no2)n[nH]1
4 (≈ 11 µM) | Oc1ccc(-c2nc(-c3ccc(Oc4ccc(F)cc4)cc3)no2)cc1O
≥ 128 | Oc1ccccc1-c1nc(-c2ccc(Oc3ccccc3)cc2)no1
0.5 (≈ 1.38 µM) | CC(C)Nc1c[nH]nc1-c1nc(-c2ccc(Oc3ccccc3)cc2)no1
≥ 128 | COc1ccc(-c2nc(-c3ccc(Oc4ccccc4)cc3)no2)cc1N
2 (≈ 4.01 µM) | FC(F)(F)c1ccc(Oc2ccc(-c3noc(-c4n[nH]cc4I)n3)cc2)cc1
16 (≈ 42.9 µM) | FC(F)(F)c1ccc(Oc2ccc(-c3noc(-c4cn[nH]n4)n3)cc2)cc1
2 (≈ 4.6 µM) | Oc1c(F)cc(-c2nc(-c3ccc(Oc4ccc(C(F)(F)F)cc4)cc3)no2)cc1F
≥ 128 | CC(=O)Nc1ccc(-c2nc(-c3ccc(Oc4ccc(C(F)(F)F)cc4)cc3)no2)cc1
